The source of these data is publication PMC6658769, “First-Time-in-Human Study and Prediction of Early Bactericidal Activity for GSK3036656, a Potent Leucyl-tRNA Synthetase Inhibitor for Tuberculosis Treatment” (Antimicrobial Agents and Chemotherapy, 2019).

Read-outs that look alike come from different tables or passages of the source.

One data set concerns M. tuberculosis. To be noted: cited from earlier work.
For data set [1] the following is noted: human, in vivo.

As to `COc1nc2ccc(Br)cc2cc1[C@@H](c1ccccc1)[C@@](O)(CCN(C)C)c1cccc2ccccc12` [bedaquiline], the “reported average EBA0–14” value in the data set with M. tuberculosis (loading doses of 700 mg on day 1 and 500 mg on day 2 and then 400 mg) is 0.061.
`C[C@]1(COc2ccc(N3CCC(Oc4ccc(OC(F)(F)F)cc4)CC3)cc2)Cn2cc([N+](=O)[O-])nc2O1` [delamanid]: in the data set on M. tuberculosis (300 mg), the “reported average EBA0–14” value is recorded as 0.065.
For the compound `NC[C@@H](O)c1c(Cl)ccc(OCCO)c1O` [GSK3635633], in data set [1], the “% dose in pooled urine” value stood at 6 % dose.
